Laboratory results taken from PMC3467072 (Nucleic Acids Research, 2012).

Tested on: Rv3066–IR1
Assay type: binding, Mycobacterium tuberculosis
Conditions: 1 µM ethidium versus no ethidium

CC[n+]1c(-c2ccccc2)c2cc(N)ccc2c2ccc(N)cc21 [ethidium, ethidium bromide]
Weakening of the binding affinity between Rv3066 and IR1: 2.4 times
